Reference: PMC8330742, “New benzothieno[2,3-c]pyridines as non-steroidal CYP17 inhibitors: design, synthesis, anticancer screening, apoptosis induction, and in silico ADME profile studies” (Journal of Enzyme Inhibition and Medicinal Chemistry, 2021)
pIC50: −log10 of the molar value.

Assays:
Assay in all cases: NCI-60 SRB screen;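 on pIC50: half-maximal inhibitory concentration read as cell viability unlike GI50 net growth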
NCI-H460 = type: cell-based, human; details: NCI-H460
HL-60(TB) = type: cell-based, human
OVCAR-8 = type: cell-based, human; details: OVCAR-8
HCT-15 = type: cell-based, human; details: HCT-15
HCC-2998 = type: cell-based, human; details: HCC-2998
HCT-116 = type: cell-based, human; details: HCT-116
SK-MEL-28 = type: cell-based; details: SK-MEL-28
NCI-H522 = type: cell-based, human; details: NCI-H522
SN12C = type: cell-based, human; details: SN12C
SF-268 = type: cell-based, human; details: SF-268
NCI-H226 = type: cell-based, human; details: NCI-H226
SR = type: cell-based
A549/ATCC = type: cell-based, human
TK-10 = type: cell-based, human; details: TK-10
HOP-62 = type: cell-based, human; details: HOP-62
COLO 205 = type: cell-based, human; details: COLO 205
NCI-H23 = type: cell-based, human; details: NCI-H23
UO-31 = type: cell-based, human; details: UO-31
SW-620 = type: cell-based; details: SW-620
SK-MEL-5 = type: cell-based, human; details: SK-MEL-5
MDA-MB-435 = type: cell-based
RXF 393 = type: cell-based, human; details: Homo sapiens, RXF 393
[1] = Homo sapiens, single dose 10^−5 M, read-out: Growth inhibition (%)

N#CC1C(=O)NC(c2ccccc2[N+](=O)[O-])c2sc3c(F)cccc3c21 (stereo not shown) [Compound 5c, 4-Cyano-8-fluoro-1-(2-nitrophenyl)-1,2-dihydro[1]benzothieno[2,3-c] pyridin-3(4H)-one]
GI50 (NCI-H460; Homo sapiens, five dose): 0.29 µM | pIC50 (NCI-H460; Homo sapiens, five dose): 6.43 | inhibition at 10 µM (NCI-H460; [1]): 11.5% | TGI (NCI-H460; five dose): 100 µM | TGI (HL-60(TB); HL-60(TB), five dose): 100 µM | GI50 (HL-60(TB); Homo sapiens, HL-60): 14.2 µM | pIC50 (HL-60(TB); Homo sapiens, HL-60): 4.55 | inhibition at 10 µM (HL-60(TB); Homo sapiens, HL-60, read-out: Growth inhibition (%)): 18.8% | GI50 (OVCAR-8; Homo sapiens, five dose): 12 µM | pIC50 (OVCAR-8; Homo sapiens, five dose): 4.69 | inhibition at 10 µM (OVCAR-8; [1]): 25.1% | TGI (OVCAR-8; five dose): 100 µM | TGI (HCT-15; five dose): 100 µM | GI50 (HCT-15; Homo sapiens, five dose): 11.4 µM | pIC50 (HCT-15; Homo sapiens, five dose): 4.78 | inhibition at 10 µM (HCT-15; [1]): 12.3% | TGI (HCC-2998; five dose): 94.90 µM | GI50 (HCC-2998; Homo sapiens, five dose): 17.4 µM | pIC50 (HCC-2998; Homo sapiens, five dose): 4.47 | inhibition at 10 µM (HCC-2998; [1]): 6.16% | TGI (HCT-116; five dose): 44.50 µM | GI50 (HCT-116; Homo sapiens, five dose): 0.14 µM | pIC50 (HCT-116; Homo sapiens, five dose): 6.71 | inhibition at 10 µM (HCT-116; [1]): 89% | GI50 (SK-MEL-28; Homo sapiens, five dose): 31.2 µM | pIC50 (SK-MEL-28; Homo sapiens, five dose): 4.18 | LC50 (50% lethal concentration) (SK-MEL-28; Homo sapiens, five dose): > 100 µM | inhibition at 10 µM (SK-MEL-28; [1]): -10.6% | TGI (SK-MEL-28; five dose): 100 µM | GI50 (NCI-H522; Homo sapiens, five dose): 18.4 µM | pIC50 (NCI-H522; Homo sapiens, five dose): 4.38 | inhibition at 10 µM (NCI-H522; [1]): 17.3% | TGI (NCI-H522; five dose): 100 µM | inhibition at 10 µM (SN12C; Homo sapiens, SN 12 C, single dose 10^−5 M, read-out: Growth inhibition (%)): 20.9% | GI50 (SN12C; Homo sapiens, five dose): 18.6 µM | pIC50 (SN12C; Homo sapiens, five dose): 4.46 | TGI (SN12C; five dose): 100 µM | GI50 (SF-268; Homo sapiens, five dose): 16.4 µM | pIC50 (SF-268; Homo sapiens, five dose): 4.33 | inhibition at 10 µM (SF-268; [1]): 14.4% | TGI (SF-268; five dose): 100 µM | GI50 (NCI-H226; Homo sapiens, five dose): 0.27 µM | pIC50 (NCI-H226; Homo sapiens, five dose): 6.06 | inhibition at 10 µM (NCI-H226; [1]): 31.2% | TGI (NCI-H226; five dose): 100 µM | GI50 (SR; Homo sapiens, five dose): 14.1 µM | pIC50 (SR; Homo sapiens, five dose): 4.60 | LC50 (SR; Homo sapiens, five dose): > 100 µM | inhibition at 10 µM (SR; [1]): 33.2% | TGI (SR; five dose): 100 µM | GI50 (A549/ATCC; Homo sapiens, five dose): 1.31 µM | pIC50 (A549/ATCC; Homo sapiens, five dose): 5.63 | inhibition at 10 µM (A549/ATCC; [1]): 52.8% | TGI (A549/ATCC; five dose): 100 µM | GI50 (TK-10; Homo sapiens, five dose): 17.7 µM | pIC50 (TK-10; Homo sapiens, five dose): 4.14 | inhibition at 10 µM (TK-10; [1]): 58.9% | TGI (TK-10; five dose): 100 µM | TGI (HOP-62; five dose): 100 µM | GI50 (HOP-62; Homo sapiens, five dose): 10 µM | pIC50 (HOP-62; Homo sapiens, five dose): 4.64 | inhibition at 10 µM (HOP-62; [1]): 66.3% | TGI (COLO 205; five dose): 100 µM | GI50 (COLO 205; Homo sapiens, five dose): 10.3 µM | pIC50 (COLO 205; Homo sapiens, five dose): 4.75 | inhibition at 10 µM (COLO 205; [1]): 29.9% | GI50 (NCI-H23; Homo sapiens, five dose): 7.33 µM | pIC50 (NCI-H23; Homo sapiens, five dose): 4.71 | inhibition at 10 µM (NCI-H23; [1]): 32.9% | TGI (NCI-H23; five dose): 100 µM | GI50 (UO-31; Homo sapiens, five dose): 10.7 µM | pIC50 (UO-31; Homo sapiens, five dose): 4.71 | inhibition at 10 µM (UO-31; [1]): 46.2% | TGI (UO-31; five dose): 55.20 µM | GI50 (SW-620; Homo sapiens, five dose): 0.37 µM | pIC50 (SW-620; Homo sapiens, five dose): 6.17 | LC50 (50% lethal concentration) (SW-620; Homo sapiens, five dose): > 100 µM | inhibition at 10 µM (SW-620; [1]): 88.1% | TGI (SW-620; five dose): 100 µM | GI50 (SK-MEL-5; Homo sapiens, five dose): 13 µM | pIC50 (SK-MEL-5; Homo sapiens, five dose): 4.68 | inhibition at 10 µM (SK-MEL-5; [1]): 24.9% | TGI (SK-MEL-5; five dose): 67.60 µM | GI50 (MDA-MB-435; Homo sapiens, MDA-MB-435): 27.2 µM | pIC50 (MDA-MB-435; Homo sapiens, MDA-MB-435): 4.42 | inhibition at 10 µM (MDA-MB-435; Homo sapiens, MDA-MB-435, read-out: Growth inhibition (%)): -1.7% | LC50 (50% lethal concentration) (MDA-MB-435; Homo sapiens, MDA-MB-435, five dose): > 100 µM | TGI (MDA-MB-435; MDA-MB-435, five dose): 100 µM | GI50 (RXF 393; five dose): 11.3 µM | pIC50 (RXF 393; five dose): 4.43 | inhibition at 10 µM (RXF 393; single dose 10^−5 M, read-out: Growth inhibition (%)): 30.1%
